The values that follow come from ChEMBL document CHEMBL1201862, “PubChem BioAssay data set” (2004).

Activity calls are given as the source filed them. Rule as the data show it, for most assays here: actives have a measured EC50 and inactives only a lower limit.

For assay [1], the target named is T1, RNA-binding protein pos-1 (Caenorhabditis elegans, UniProt G5EF15).
T1 sequence (G5EF15 whole entry): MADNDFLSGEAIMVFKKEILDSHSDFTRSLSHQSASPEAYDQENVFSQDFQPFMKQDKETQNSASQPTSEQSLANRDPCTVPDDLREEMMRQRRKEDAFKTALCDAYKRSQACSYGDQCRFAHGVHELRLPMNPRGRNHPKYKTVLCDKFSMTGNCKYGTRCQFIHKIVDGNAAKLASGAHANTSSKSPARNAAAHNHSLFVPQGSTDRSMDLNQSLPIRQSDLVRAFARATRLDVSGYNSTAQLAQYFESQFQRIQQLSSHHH
Nature of the assay: disruptors of C. elegans POS-1 RNA interaction – biochemical, fluorescence polarization, dose response (AID 1964).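 Also: purified POS-1 fused to maltose binding protein made in E. coli; potency of compounds blocking POS-1 binding to fluorescent RNA.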 Background: In fluorescence polarisation assays a small probe gives low polarisation when free and higher when bound to something large.

For assay [2], the target named is T2, Zinc finger protein mex-5 (Caenorhabditis elegans, UniProt Q9XUB2).
T2 sequence (Q9XUB2 whole entry): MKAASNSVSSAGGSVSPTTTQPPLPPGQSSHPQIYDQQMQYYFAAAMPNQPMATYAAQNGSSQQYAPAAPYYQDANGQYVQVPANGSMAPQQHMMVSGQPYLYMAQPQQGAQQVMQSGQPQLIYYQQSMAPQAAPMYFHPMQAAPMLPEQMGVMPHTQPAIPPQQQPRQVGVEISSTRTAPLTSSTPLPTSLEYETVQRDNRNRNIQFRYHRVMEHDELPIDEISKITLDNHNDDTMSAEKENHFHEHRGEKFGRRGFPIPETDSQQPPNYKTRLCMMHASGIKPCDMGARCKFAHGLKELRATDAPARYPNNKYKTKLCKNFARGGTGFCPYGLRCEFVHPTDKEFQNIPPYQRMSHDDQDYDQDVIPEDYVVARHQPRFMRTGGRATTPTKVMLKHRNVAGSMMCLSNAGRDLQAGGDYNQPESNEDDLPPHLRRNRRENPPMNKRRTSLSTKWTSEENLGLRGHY
Nature of the assay: potency of MEX-5 RNA-binding blockers – biochemical, C. elegans, fluorescence polarization, dose response (AID 1960).

The target of assay [3] is T3, Protein skinhead-1 (Caenorhabditis elegans, UniProt P34707).
T3 sequence (P34707 whole entry): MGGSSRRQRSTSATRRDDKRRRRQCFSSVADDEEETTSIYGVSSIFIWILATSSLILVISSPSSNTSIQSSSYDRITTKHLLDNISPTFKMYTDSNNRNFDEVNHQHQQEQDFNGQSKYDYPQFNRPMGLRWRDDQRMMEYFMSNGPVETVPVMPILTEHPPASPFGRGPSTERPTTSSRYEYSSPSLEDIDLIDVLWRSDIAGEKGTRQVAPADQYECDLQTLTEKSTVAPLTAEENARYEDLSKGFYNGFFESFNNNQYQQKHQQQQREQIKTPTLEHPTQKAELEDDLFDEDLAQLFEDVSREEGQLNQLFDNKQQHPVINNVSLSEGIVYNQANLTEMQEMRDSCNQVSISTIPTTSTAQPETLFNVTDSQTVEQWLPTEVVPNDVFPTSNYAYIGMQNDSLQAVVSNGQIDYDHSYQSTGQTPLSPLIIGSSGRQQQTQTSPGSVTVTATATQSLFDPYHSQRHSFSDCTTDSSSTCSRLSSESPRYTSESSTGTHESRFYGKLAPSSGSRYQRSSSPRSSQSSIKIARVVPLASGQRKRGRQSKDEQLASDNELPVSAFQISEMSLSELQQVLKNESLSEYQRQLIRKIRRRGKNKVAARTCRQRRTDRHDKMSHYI
The assay is classed as functional.

Assay [4] concerns the target T4, Rac GTPase-activating protein 1 (Homo sapiens, UniProt Q9H0H5).
T4 sequence (Q9H0H5 whole entry): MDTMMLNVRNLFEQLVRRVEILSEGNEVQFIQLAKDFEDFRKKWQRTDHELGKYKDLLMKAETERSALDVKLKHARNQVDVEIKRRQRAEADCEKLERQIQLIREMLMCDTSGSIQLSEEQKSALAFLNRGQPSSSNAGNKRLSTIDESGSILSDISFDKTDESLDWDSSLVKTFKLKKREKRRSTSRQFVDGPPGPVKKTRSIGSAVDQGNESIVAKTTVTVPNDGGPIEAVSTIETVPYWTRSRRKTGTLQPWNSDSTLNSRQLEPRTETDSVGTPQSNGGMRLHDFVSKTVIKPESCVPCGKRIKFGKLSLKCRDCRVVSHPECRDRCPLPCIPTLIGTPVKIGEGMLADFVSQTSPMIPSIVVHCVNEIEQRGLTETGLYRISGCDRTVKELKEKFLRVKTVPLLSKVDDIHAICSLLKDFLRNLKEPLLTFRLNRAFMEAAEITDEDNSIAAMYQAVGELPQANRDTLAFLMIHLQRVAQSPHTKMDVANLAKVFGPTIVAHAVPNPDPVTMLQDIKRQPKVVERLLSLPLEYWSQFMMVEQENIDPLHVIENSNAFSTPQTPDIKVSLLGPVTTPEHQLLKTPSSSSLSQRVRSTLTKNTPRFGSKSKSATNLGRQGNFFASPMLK
Description: blockers of MgcRacGAP-driven Rac1 GTP hydrolysis – biochemical, ADP Hunter fluorescence, primary and confirmatory, confirmation (AID 624330). The format is functional.

Assay [5] concerns the target T5, Replicative DNA helicase DnaB (Mycobacterium tuberculosis, UniProt P9WMR3).
T5 sequence (P9WMR3 whole entry): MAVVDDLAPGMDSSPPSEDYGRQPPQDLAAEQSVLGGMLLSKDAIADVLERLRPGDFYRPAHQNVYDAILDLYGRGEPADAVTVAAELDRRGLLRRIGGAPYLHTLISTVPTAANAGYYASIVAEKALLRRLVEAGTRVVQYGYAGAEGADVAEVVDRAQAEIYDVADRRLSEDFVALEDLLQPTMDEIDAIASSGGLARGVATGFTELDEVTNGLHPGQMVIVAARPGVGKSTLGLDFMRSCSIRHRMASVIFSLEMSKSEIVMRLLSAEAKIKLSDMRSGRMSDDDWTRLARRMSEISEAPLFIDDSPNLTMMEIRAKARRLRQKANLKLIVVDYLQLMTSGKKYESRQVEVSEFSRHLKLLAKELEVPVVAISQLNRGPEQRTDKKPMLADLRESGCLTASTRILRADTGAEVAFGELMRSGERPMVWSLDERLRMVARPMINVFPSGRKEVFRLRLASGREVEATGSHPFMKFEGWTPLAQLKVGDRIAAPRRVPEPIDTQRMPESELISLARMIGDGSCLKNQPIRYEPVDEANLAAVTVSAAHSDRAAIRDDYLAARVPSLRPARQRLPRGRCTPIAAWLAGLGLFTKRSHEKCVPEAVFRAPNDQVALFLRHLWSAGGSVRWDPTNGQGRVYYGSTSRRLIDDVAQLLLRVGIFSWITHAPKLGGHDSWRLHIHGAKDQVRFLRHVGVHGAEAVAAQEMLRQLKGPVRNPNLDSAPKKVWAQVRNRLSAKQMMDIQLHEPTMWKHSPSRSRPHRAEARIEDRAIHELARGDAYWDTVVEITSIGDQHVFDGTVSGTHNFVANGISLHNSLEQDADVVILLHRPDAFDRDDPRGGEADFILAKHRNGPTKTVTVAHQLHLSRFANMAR
Description: DnaB intein splicing inhibitors, dose response, biochemical, cell-free fluorescence (AID 449749). The format is functional.

Assay [6] addresses T6, Protein RecA (Mycobacterium tuberculosis, UniProt P9WHJ3).
T6 sequence (P9WHJ3 whole entry): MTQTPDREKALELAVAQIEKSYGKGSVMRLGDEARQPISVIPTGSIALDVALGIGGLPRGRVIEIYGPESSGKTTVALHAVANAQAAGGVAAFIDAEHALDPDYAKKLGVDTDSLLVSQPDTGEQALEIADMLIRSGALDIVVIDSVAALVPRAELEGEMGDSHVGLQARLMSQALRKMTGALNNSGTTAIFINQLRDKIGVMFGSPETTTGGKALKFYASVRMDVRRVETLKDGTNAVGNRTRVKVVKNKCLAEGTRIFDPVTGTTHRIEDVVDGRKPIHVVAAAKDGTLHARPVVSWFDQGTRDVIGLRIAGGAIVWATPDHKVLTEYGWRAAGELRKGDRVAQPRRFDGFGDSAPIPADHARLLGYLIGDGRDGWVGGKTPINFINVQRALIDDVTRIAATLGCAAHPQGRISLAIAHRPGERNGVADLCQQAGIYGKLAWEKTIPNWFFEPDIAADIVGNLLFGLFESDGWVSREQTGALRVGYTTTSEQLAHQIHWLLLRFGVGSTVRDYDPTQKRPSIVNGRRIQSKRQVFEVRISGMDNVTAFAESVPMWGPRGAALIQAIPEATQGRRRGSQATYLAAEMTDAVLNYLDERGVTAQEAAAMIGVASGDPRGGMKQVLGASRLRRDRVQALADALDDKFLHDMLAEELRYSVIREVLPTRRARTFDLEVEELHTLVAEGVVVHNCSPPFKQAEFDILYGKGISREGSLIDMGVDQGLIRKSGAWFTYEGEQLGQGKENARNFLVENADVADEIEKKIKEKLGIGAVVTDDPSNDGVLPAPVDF
Description: Fluorescence Cell-Free Homogeneous Dose Retest to Identify Inhibitors of RecA-Intein Splicing Activity. [Related pubchem assays (depositor defined):AID2097, AID2223, AID489010, AID492950]. The format is functional.

Assay [7] has as its system H4. Nature of the assay: Luminescence Cell-Based Dose Response HTS to Identify Activators of 5'UTR Stem-Loop Driven Prion Protein mRNA Translation in H4 Neuroglioblastoma Cells. [Related pubchem assays: 1829 (Project Summary), 1814 (Primary HTS)]. The format is functional. To be noted: Homo sapiens.

As for `CCN(CC)c1ccc(/C=c2/sc3nnc(-c4ccccc4C)n3c2=O)cc1`, the EC50 in assay [1] is > 300 µM (not active); in assay [2], > 300 µM (inconclusive).

Regarding `Fc1ccc(-c2csc(Nc3ccccn3)n2)c(F)c1`, the IC50 in assay [3] is > 100 µM (inactive).

In the case of `CCOC(=O)C1CCN(Cc2c[nH]nc2-c2ccccc2)CC1`, the IC50 in assay [4] was 131 µM (active).

Turning to `O=C1CC(Nc2ccc(N3CCOCC3)cc2)C(=O)N1Cc1ccccc1` (stereo unspecified), in assay [4], the IC50 was 140 µM (active).

For the compound `Cc1ccc(C)c(N/C([S-])=C(/C(=O)c2ccc(OC(F)F)cc2)[n+]2ccccc2)c1`, the AC50 in assay [5] was 36.6 µM (active). Besides, in assay [6], the EC50 was 11.5 µM (active).

Regarding `C/C(CC(=O)Nc1cc(C)ccn1)=N\NC(=O)c1ccccc1C`, in assay [5], the AC50 is 26.8 µM (active). For the same compound, the EC50 in assay [6] was 6.24 µM (active).

As for `CC1(OC(=O)c2cnc3ccccc3n2)C(=O)C=C2C=C(c3ccc(C#N)cc3)OC=C2C1=O` (stereo unspecified), the EC50 was 39.8 µM (active) in assay [1] and 44.9 µM (active) in assay [2].

In the case of `N#C/C(=C\c1ccc(N2CCCCC2)o1)C(=O)Nc1cccc(Br)c1`, the EC50 in assay [7] is 0.102 µM (active).

For `O=C(CCCCCNC(=O)c1ccccc1)N/N=C/c1ccc(O)cc1O`, the half-inhibitory concentration (IC50) in assay [4] is 69.9 µM (active).

`COc1ccc(C=NNC(=O)c2cc(C)oc2C)cc1O`: the IC50 in assay [4] is 107 µM (active).

On to `CC1(OC(=O)c2ccco2)C(=O)C=C2C=C(c3ccsc3)OC=C2C1=O` (stereo unspecified), for which the EC50 in assay [1] was > 300 µM (not active); in assay [2], 23.1 µM (active).

Turning to `O=C(O[C@@H]1Cc2c(O)cc(O)cc2O[C@@H]1c1cc(O)c(O)c(O)c1)c1cc(O)c(O)c(O)c1` [EPIGALOCATECHIN GALLATE], the EC50 in assay [1] was 5.89 µM (inconclusive); in assay [2], 0.727 µM (active).

`CCCNS(=O)(=O)c1ccc(CCC(=O)NCc2ccc3c(c2)OCO3)cc1`: the EC50 in assay [1] and in assay [2] was > 300 µM (not active) each time.

Take `O=C1NC(=O)N(CCc2ccccc2)C(=O)/C1=C/NNC(=O)c1ccccc1`: the EC50 is 40.2 µM (active) in assay [1] and > 150 µM (not active) in assay [2].

Regarding `CCCCCCOC(=O)c1ccc(OC(=O)c2cccnc2)cc1`, the AC50 in assay [5] was 3.69 µM (active). Also, in assay [6], the EC50 is 3.58 µM (active).

Take `Cc1ccc(/C=C2\C(=O)NC(=S)N(c3ccc(F)cc3)C2=O)o1`: the EC50 in assay [1] is > 300 µM (not active); in assay [2], 43.9 µM (active).

Consider `CCN(CC)C(=O)CNc1ccc(C(F)(F)F)cc1[N+](=O)[O-]`, for which the EC50 is 40 µM (inconclusive) in assay [1] and > 300 µM (not active) in assay [2].

`COc1ccc(NC(=O)/C(C#N)=C/c2ncc([N+](=O)[O-])n2C)c(OC)c1`: the AC50 in assay [5] was 67.5 µM (active). The EC50 in assay [6] was 15.6 µM (active).

On to `Cc1ccc(S(=O)(=O)C(C#N)c2nc3ccccc3nc2N2CC(C)OC(C)C2)cc1C` (stereo unspecified), for which the values for the 50% effective concentration (EC50) in assay [1] and in assay [2] were 4.67 µM (inconclusive) and 26.1 µM (inconclusive), respectively.

Take `Nc1nc(N)c2[nH]c(S)nc2n1`: the IC50 in assay [4] was 163 µM (active).

For the compound `COc1ccc(NC2CCCN(C(=O)CSc3ccccc3)C2)cc1OC` (stereo unspecified), the IC50 in assay [4] is 60 µM (active).

As for `COC(=O)CCCC1=CC2=CC(=O)C(C)(OC(=O)c3ccc(Cl)nc3)C(=O)C2=CO1` (stereo unspecified), the results for the EC50 in assay [1] and in assay [2] were > 150 µM (not active) and 18.8 µM (active), respectively.

With `Cc1[nH][nH]c(=O)c1C(c1ccc(N(C)C)c(Br)c1)c1c(C)[nH][nH]c1=O`, the AC50 in assay [5] is 0.467 µM (active). Also, the EC50 in assay [6] was 0.274 µM (active).

Consider `O=C(c1c[nH]c(C(=O)C(Cl)(Cl)Cl)c1)c1ccccc1Br`, for which the AC50 in assay [5] was 6.31 µM (active). For the same compound, the concentration for a half-maximal effect (EC50) in assay [6] was 6.33 µM (active).

On to `O=C(NC1CC1)c1cccc(Nc2ccc(-c3ccc4c(c3)OCCO4)nn2)c1`, for which the half-maximal effective concentration (EC50) in assay [7] is 52.2 µM (active).

As a reminder, the EC50 is the concentration that produces a half-maximal response. By IC50 is commonly meant the point on the concentration scale where inhibition reaches its midpoint. The term AC50 denotes the concentration at which the activity in the assay is half-maximal.
